US11484032B2, “Compositions for inhibition of insect sensing” (Vanderbilt University, priority 2011, dated 2022)

Legend:
[1] = test system: HvOR2; experiment: Whole-cell patch clamp, HEK cells transiently expressing HvOR2; assay type: cell-based, Heliothis virescens; conditions: HvOR2 transiently transfected HEK cells
Description: For transient transfections, ORs were cloned into pCl (Promega) and transfected into Flp-In™ T-REx™293 cell lines (Invitrogen) with Fu GENE6 (Roche). For the creation of stable cell lines, a cell culture expression vector capable of expressing Orco in conjunction with a conventional OR, pcDNA5/FRT/TO (Invitrogen) was modified to create two individual expression cassettes each under the control of a separate CMV/Tet02 promoter and a BGH poly-adenylation signal. Cells (as above) were transfected with the modified pcDNA5 plasmid along with POG44 (a Flp recombinase expression plasmid) to facilitate site-specific recombination. Stable cell lines were selected using Hygromycin B (Invitrogen). Cells were maintained in DMEM (Invitrogen) supplemented with 10% Tetracycline-free FBS (HyClone) and 15 ng/ml Blasticidin. […] Baseline readings were taken for 20 s before automated addition of compound previously diluted in DMSO and assay buffer. […]
Currents from OR-expressing HEK293 cells were amplified with an Axopatch 200b Amplifier (Axon Instruments) and digitized through a Digidata 1322A (Axon Instruments). Electrophysiological data was recorded and analyzed using pCLAMP 10 (Axon Instruments). […]

[2] = molecular target: T1, rat transient receptor potential vanilloid 1 (rTRPV1) (Rattus norvegicus, UniProt O35433); experiment: Whole-cell patch clamp, HEK cells stably expressing rTRPV1; assay type: cell-based
T1 construct: expressed in transfected cells
T1 sequence (O35433 whole entry): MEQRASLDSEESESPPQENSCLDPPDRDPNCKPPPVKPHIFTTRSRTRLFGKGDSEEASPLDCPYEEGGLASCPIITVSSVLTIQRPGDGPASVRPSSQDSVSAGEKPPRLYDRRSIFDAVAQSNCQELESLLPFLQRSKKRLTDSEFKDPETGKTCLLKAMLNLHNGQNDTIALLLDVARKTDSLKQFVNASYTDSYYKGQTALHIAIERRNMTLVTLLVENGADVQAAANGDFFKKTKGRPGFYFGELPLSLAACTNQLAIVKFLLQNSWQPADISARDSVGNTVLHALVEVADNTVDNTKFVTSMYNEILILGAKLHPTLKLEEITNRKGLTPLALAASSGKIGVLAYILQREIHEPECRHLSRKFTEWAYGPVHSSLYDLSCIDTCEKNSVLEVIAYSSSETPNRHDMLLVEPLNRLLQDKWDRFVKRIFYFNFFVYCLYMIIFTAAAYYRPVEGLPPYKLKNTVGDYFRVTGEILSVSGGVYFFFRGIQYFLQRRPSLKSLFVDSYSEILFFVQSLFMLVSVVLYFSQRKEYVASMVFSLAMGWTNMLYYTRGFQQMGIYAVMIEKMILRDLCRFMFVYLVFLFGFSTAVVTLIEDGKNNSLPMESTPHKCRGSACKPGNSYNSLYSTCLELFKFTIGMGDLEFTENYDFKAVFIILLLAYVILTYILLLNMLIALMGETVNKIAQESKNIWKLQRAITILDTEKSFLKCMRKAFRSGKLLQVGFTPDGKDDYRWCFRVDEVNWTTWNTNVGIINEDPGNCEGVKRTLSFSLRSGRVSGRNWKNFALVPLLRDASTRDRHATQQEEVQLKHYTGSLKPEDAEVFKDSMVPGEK
Experimental: Currents from OR-expressing HEK293 cells were amplified with an Axopatch 200b Amplifier (Axon Instruments) and digitized through a Digidata 1322A (Axon Instruments). Electrophysiological data was recorded and analyzed using pCLAMP 10 (Axon Instruments). Electrodes were fabricated from quartz tubing (Sutter Instruments) and pulled to 4-6 MiΩ for whole cell recording. Electrodes were filled with internal solution (120 mM KCl, 30 mM D-glucose, 10 mM HEPES, 2 mM MgCl2, 1.1 mM EGTA, and 0.1 CaCl2) (pH 7.35, 280 mOsm). External (bath) solution contained 130 mM NaCl, 34 mM D-glucose, 10 mM HEPES, 1.5 mM CaCl2), 1.3 mM KH2PO4, and 0.5 MgSO4 (pH 7.35, 300 mOsm). Compounds were diluted in external solution and locally perfused to the recording cell using Perfusion Pencil (Automate Scientific) and controlled by a ValveLink 8.2 controller (Automate Scientific). Whole cell recordings were sampled at 10 kHz and filtered at 5 kHz. Outside-out patches were obtained using 10-15MΩ electrodes pulled from standard glass capillaries (World Precision Instruments) and fire-polished with an MF-830 micro forge (Narishige). Single channel recordings were sampled at 20 kHz. Recordings were reduced to 1 kHz and low-pass filtered at 500 Hz for display and analysis using QuB (SUNY at Buffalo).

[3] = test system: AgORco-expressing CpB/C neurons; experiment: Single sensillum recording, capitate peg sensilla, CpB/C neurons; assay type: in vivo, Anopheles gambiae; conditions: compound delivered via glass recording electrode
Experimental: Single sensillum recordings were performed on 4-7 day old, non-bloodfed Anopheles gambiae females maintained on 10% sucrose and a 12/12 light dark cycle. Legs, wings and antennae were removed from cold-anesthetized females that were then restrained on double-stick tape with thread. A glass reference electrode filled with Sensillar lymph ringers (SLR)(Xu, 2005) was placed in the eye and the recording electrode filled with DMSO or VUAA1 diluted in SLR was used to puncture sensilla at their base. Responses were recorded and digitized using a Syntech IDAC-4 and analyzed with AutoSpike software (Syntech). New glass recording pipettes were used for every recording. Data was sampled at 12 kHz.
The inventors next performed single unit, extracellular electrophysiological recordings on adult female An. gambiae to determine whether VUAA1 could activate AgORco-expressing odorant receptor neurons (ORNs) in vivo. ORNs, which express AgORco and a conventional OR are enclosed within the hair-like sensilla present on olfactory tissues. […] CpA is clearly distinguished from CpB/C by its large action potential amplitude. The action potential amplitudes of CpB and CpC are much smaller and in some preparations indistinguishable from each other; as a result, the spike activity of CpB and CpC neurons were binned for data analysis. […]

In the case of `CCc1ccc(NC(=O)CSc2nnc(-c3cccnc3)n2CC)cc1` [VUAA1, 2-((4-ethyl-5-(pyridin-3-yl)-4H-1,2,4-triazol-3-yl)thio)-N-(4-ethylphenyl)acetamide], the whole-cell current response [1] was “robust inward currents”, the whole-cell current response [2] was “did not elicit currents” and the “spike frequency of CpB/C neurons” value [3] was “increased the spike frequency of CpB/C neurons in a dose-dependent manner”.
